The supplement of paper PMC10307832

Tests used:
Assay in all cases: relative viability (nuclei count vs DMSO), 5 days (fraction); higher = more cells survive
[1] = compound: C1=CC=C2C(=C1)N=C(S2)C(C#N)C3=NC(=NC=C3)NCCC4=CN=CC=C4 + CC1(C)CCC(c2ccc(Cl)cc2)=C(CN2CCN(c3ccc(C(=O)NS(=O)(=O)c4ccc(N[C@H](CCN5CCOCC5)CSc5ccccc5)c(S(=O)(=O)C(F)(F)F)c4)cc3)CC2)C1 [Navitoclax] (partner 0.5 µM)
Procedure, shortened: (§1)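 One day after seeding in 1536-well plates, lung cancer cell lines were dosed by pin tool. Dosing was either single-drug or a fixed anchor-drug dose plus five library-drug doses (not always all listed) in √10 steps. After 5 days, nuclei were stained in one fix-and-stain step and counted on 4× images, and relative viability is the nuclei count of treated wells over that of vehicle wells, given as the median of duplicate plates.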

[2] = compound: COc1cc(N2CCC(N3CCN(C)CC3)CC2)ccc1Nc1ncc(Cl)c(Nc2ccccc2S(=O)(=O)C(C)C)n1 [NVP-TAE684] + CC(C)C[C@H](NC(=O)[C@H](Cc1ccccc1)NC(=O)c1cnccn1)B(O)O [Bortezomib] (partner 0.002 µM)
Procedure, shortened: as §1

[3] = compound: COc1cc2/c(=N/c3ccc(Br)cc3F)nc[nH]c2cc1OCC1CCN(C)CC1 [Vandetanib] + CC(C)C[C@H](NC(=O)[C@H](Cc1ccccc1)NC(=O)c1cnccn1)B(O)O [Bortezomib] (partner 0.002 µM)
Procedure, shortened: as §1

[4] = compound: COc1cc2/c(=N/c3ccc(Br)cc3F)nc[nH]c2cc1OCC1CCN(C)CC1 [Vandetanib] + N=C(N)NC(=N)NCCc1ccccc1 [Phenformin] (partner 250 µM)
Procedure, shortened: as §1

Cell Line	relative viability ([1]; first compound 0.005 µM)	relative viability ([1]; first compound 0.01581 µM)	relative viability ([1]; first compound 0.05 µM)	relative viability ([1]; first compound 0.1581 µM)	relative viability ([1]; first compound 0.5 µM)	relative viability ([2]; first compound 0.2 µM)	relative viability ([2]; first compound 0.6325 µM)	relative viability ([2]; first compound 2 µM)	relative viability ([3]; first compound 0.02 µM)	relative viability ([3]; first compound 0.06325 µM)	relative viability ([3]; first compound 0.2 µM)	relative viability ([3]; first compound 0.6325 µM)	relative viability ([3]; first compound 2 µM)	relative viability ([4]; first compound 0.02 µM)	relative viability ([4]; first compound 0.06325 µM)	relative viability ([4]; first compound 0.2 µM)	relative viability ([4]; first compound 0.6325 µM)	relative viability ([4]; first compound 2 µM)
201T	1.14	1.22	1.14	1.24	1.2	1.11	1.01	1.11	1.03	1.08	1.13	1.03	1.06	0.466	0.406	0.427	0.403	0.424
A549	1.26	1.19	1.11	1.31	1.29	–	–	–	–	–	–	–	–	0.195	0.133	0.121	0.142	0.0686
A-427	0.964	0.95	0.956	0.896	1.05	1.1	–	0.78	0.887	0.99	1.04	1.02	0.961	0.297	0.303	0.274	0.253	0.22
ABC-1	–	–	–	–	–	0.223	0.256	0.169	0.304	0.3	0.287	0.406	0.244	0.248	0.205	0.256	0.275	0.266
BEN	0.0669	0.0686	0.0618	0.134	0.0603	0.784	0.817	0.679	0.875	0.714	0.83	0.919	0.861	0.266	0.278	0.279	0.292	0.262
CAL-12T	0.993	1.38	1.11	1.35	0.993	0.974	0.645	0.366	1.03	1.13	0.865	0.82	0.537	0.536	0.539	0.446	0.411	0.242
COR-L23	0.929	0.94	1.1	1.04	1.15	–	1.04	0.616	0.869	0.814	0.925	0.999	0.994	0.485	0.442	0.428	0.452	0.464
COR-L 105	0.819	0.753	0.599	0.667	0.729	0.903	0.556	0.309	0.827	0.661	0.851	0.474	0.388	0.535	0.483	0.449	0.292	0.294
Calu-6	0.785	0.834	0.819	0.961	0.768	0.875	0.918	0.435	1.15	0.933	1.09	0.959	0.941	–	–	–	–	–
ChaGo-K-1	0.955	–	0.838	1.21	0.954	1.18	0.691	0.952	1.11	0.985	0.593	0.887	0.567	0.411	0.463	0.297	0.452	0.466
EBC-1	0.402	0.426	0.317	0.472	0.298	0.515	0.544	0.341	0.635	0.559	0.647	0.577	0.505	–	–	–	–	–
EKVX	0.947	0.986	1.09	0.949	1.11	0.98	0.926	0.587	1.09	0.998	1.03	0.796	0.666	0.245	0.234	0.228	0.227	0.219
EMC-BAC-2	0.823	1.19	1.14	1.2	1.01	–	1.01	0.734	1.02	1.04	1.01	1.03	1.04	0.51	0.506	0.339	0.485	0.463
EPLC-272H	0.94	1.05	1.14	1.04	1.08	1.23	–	0.66	0.983	0.764	0.892	0.995	0.909	0.326	–	0.294	0.273	0.301
H3255	0.591	0.424	0.567	0.689	0.624	0.766	0.618	0.746	0.972	0.71	0.632	0.367	0.233	0.427	0.359	0.35	0.303	0.192
HARA	1.09	1.16	1.14	1.22	1.21	1.31	1.1	1.05	1.17	1.07	0.937	1.07	1.05	0.471	0.447	0.44	0.381	0.351
HCC-15	0.736	0.787	0.664	0.749	0.602	0.916	1.07	1	1.03	0.962	0.956	1.08	1.08	0.476	0.429	0.468	0.449	0.447
HCC-44	0.759	1.13	0.906	1.02	0.872	1	0.863	0.83	0.866	0.884	0.951	0.958	0.89	0.186	0.223	0.175	0.242	0.121
HCC-78	0.454	0.774	0.623	0.912	0.818	0.428	0.381	0.307	0.618	0.6	0.511	0.668	0.383	0.744	0.638	0.662	0.664	0.627
HCC-366	0.853	0.998	1.04	1.28	0.98	0.855	1.08	1.17	1.05	0.983	0.867	0.909	1.02	0.596	0.603	0.62	0.586	0.505
HCC-827	1.07	1.07	1.02	1.05	1.04	–	0.988	1.05	1.06	1.02	1.04	0.795	0.495	0.441	0.367	0.319	0.157	0.165
HOP-62	0.854	1.25	1.05	1.16	0.871	0.678	0.725	0.758	0.624	0.667	0.847	0.918	0.663	0.689	0.664	0.487	0.728	0.703
IA-LM	–	0.816	0.817	0.826	0.568	0.679	0.563	0.583	0.727	0.831	1.01	1.06	0.953	–	–	–	–	–

Cell Line	relative viability ([1]; first compound 0.005 µM)	relative viability ([1]; first compound 0.01581 µM)	relative viability ([1]; first compound 0.05 µM)	relative viability ([1]; first compound 0.1581 µM)	relative viability ([1]; first compound 0.5 µM)	relative viability ([2]; first compound 0.2 µM)	relative viability ([2]; first compound 0.6325 µM)	relative viability ([2]; first compound 2 µM)	relative viability ([3]; first compound 0.02 µM)	relative viability ([3]; first compound 0.06325 µM)	relative viability ([3]; first compound 0.2 µM)	relative viability ([3]; first compound 0.6325 µM)	relative viability ([3]; first compound 2 µM)	relative viability ([4]; first compound 0.02 µM)	relative viability ([4]; first compound 0.06325 µM)	relative viability ([4]; first compound 0.2 µM)	relative viability ([4]; first compound 0.6325 µM)	relative viability ([4]; first compound 2 µM)
LC-2-ad	0.358	0.497	0.447	0.581	0.351	1.13	0.9	0.605	0.708	0.984	0.769	0.884	0.322	0.615	0.512	0.548	0.475	0.305
LCLC-97TM1	0.382	0.429	0.339	0.596	0.288	0.711	0.216	0.194	0.827	0.641	0.771	0.566	0.558	0.457	0.42	0.441	0.393	0.422
LCLC-103H	–	–	–	–	–	1.09	1.11	–	1.09	0.966	1.05	1.05	0.924	0.316	0.319	0.357	0.344	0.31
LK-2	–	0.931	0.824	0.916	0.843	–	–	–	–	–	–	–	–	0.381	0.5	0.419	0.444	0.408
LOU-NH91	0.682	0.724	0.578	0.633	0.641	0.548	0.492	0.518	0.514	0.47	0.535	0.504	0.504	0.709	0.619	0.537	0.509	0.51
LU99A	0.691	0.968	0.777	0.948	0.866	1.29	1.1	0.653	1.14	1.22	1.11	1.07	1.07	0.876	0.818	0.577	0.766	0.886
LXF-289	0.857	0.972	0.95	1	0.892	1.06	1.03	1.02	0.999	0.895	0.932	1.04	0.986	0.503	0.5	0.499	0.489	0.509
NCI-H358	–	–	–	–	–	–	–	–	–	–	–	–	–	0.295	0.275	0.265	0.217	0.26
NCI-H522	–	–	–	–	–	–	–	–	–	–	–	–	–	0.691	0.623	0.66	0.585	0.712
NCI-H650	–	–	–	–	–	0.784	0.562	0.614	0.757	0.877	0.705	0.862	0.596	0.464	0.448	–	0.472	0.364
NCI-H661	–	–	–	–	–	0.791	0.88	0.842	0.828	0.943	0.769	0.807	0.702	0.265	0.284	0.269	0.279	0.271
NCI-H1299	1.08	1.11	1.05	1.11	1.09	1.03	1.02	1.06	0.997	0.976	1.02	1.05	1.04	–	–	–	–	–
NCI-H1395	1.23	–	1.03	1.08	1.22	–	–	–	–	–	–	–	–	0.472	0.429	0.427	0.439	0.458
NCI-H1563	–	–	–	–	–	–	0.755	0.725	0.821	0.807	1.12	0.797	0.845	0.679	0.629	0.695	0.616	0.625
NCI-H1623	–	–	–	–	–	–	–	–	–	–	–	–	–	0.574	0.525	0.574	0.526	0.622
NCI-H1703	1.01	1.04	1.02	1.14	1.02	0.315	0.275	0.129	0.379	–	0.374	0.31	0.245	–	–	–	–	–
NCI-H1793	0.31	0.398	0.519	0.456	0.509	–	–	–	–	–	–	–	–	0.371	0.355	0.328	0.299	0.292
NCI-H1944	1.05	1.06	0.983	1.06	1.04	–	–	–	–	–	–	–	–	0.205	0.195	0.209	0.168	0.188
NCI-H2170	–	0.587	0.59	0.626	0.566	–	–	–	–	–	–	–	–	0.342	0.402	0.415	0.409	0.357
NCI-H2342	–	–	–	–	–	–	–	–	–	–	–	–	–	0.596	0.496	0.592	0.576	0.477
SK-MES-1	1.76	1.19	1.3	1.28	1.02	–	–	–	–	–	–	–	–	0.657	0.608	0.62	0.581	0.471
SW 900	–	–	–	–	–	–	–	–	–	–	–	–	–	0.635	0.657	0.197	0.474	0.434
